# Results: the supplement of paper PMC8671470
# Test system: THP-1
# Conditions: 72 h
# Summary of the method: (§1)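 The IC50 was derived from log-logistic dose–response fitting. Each of fifteen myeloid leukaemia cell lines, seeded in RPMI 1640 within its linear growth range, was exposed in 384-well plates to five tenfold doses (1 to 10,000 nM) in duplicate for 72 h at 37 °C and 5% CO2. Luminescent ATP viability readings were normalised to vehicle and to a positive control at 10 µM before four-parameter curve fitting.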
row,SMILES,IC50 (cell viability)
1,Nc1nc(O)c2c(CCc3ccc(C(=O)N[C@@H](CCC(=O)O)C(=O)O)cc3)c[nH]c2n1 [Pemetrexed],7.02 µM
2,C=C1NC(=O)c2cc(CN(C)c3ccc(C(=O)N[C@@H](CCC(=O)O)C(=O)O)s3)ccc2N1 [Raltitrexed],0.193 µM
3,CNC(=C[N+](=O)[O-])NCCSCc1ccc(CN(C)C)o1 [Ranitidine],> 10 µM
4,C#CCN[C@@H]1CCc2ccccc21 [Rasagiline],> 10 µM
5,NC(CCC(=O)NC(CSCc1ccc(Br)cc1)C(=O)NCC(=O)OC1CCCC1)C(=O)OC1CCCC1 (stereo not given) [S-para-Bromobenzylglutathione cyclopentyl diester],> 10 µM
6,COc1cc(C2Oc3cc(C4Oc5cc(O)cc(O)c5C(=O)C4O)ccc3OC2CO)ccc1O (stereo not given) [Silibinin],> 10 µM
7,Fc1ccc(CNc2ncnc3ccc(F)cc23)cc1 [Spautin 1],> 10 µM
8,Cn1c2cc(S(C)=O)sc2c2cnn(Cc3cccc(N)c3)c(=O)c21 (stereo not given) [TEPP-46],> 10 µM
9,CCCCCCCCCCCCCCOc1ccc(C(=O)O)o1 [TOFA],> 10 µM
10,CN1CC(=O)N2[C@H](c3ccc4c(c3)OCO4)c3[nH]c4ccccc4c3C[C@@H]2C1=O [Tadalafil],> 10 µM

# Test system: HL-60
# Conditions: 72 h
# Summary of the method: as §1
row,SMILES,IC50 (cell viability)
1,CC(C)(F)C[C@H](N[C@@H](c1ccc(-c2ccc(S(C)(=O)=O)cc2)cc1)C(F)(F)F)C(=O)NC1(C#N)CC1 [Odanacatib],> 10 µM
2,Nc1nc(O)c2c(CCc3ccc(C(=O)N[C@@H](CCC(=O)O)C(=O)O)cc3)c[nH]c2n1 [Pemetrexed],0.617 µM
3,C=C1NC(=O)c2cc(CN(C)c3ccc(C(=O)N[C@@H](CCC(=O)O)C(=O)O)s3)ccc2N1 [Raltitrexed],0.422 µM
4,CNC(=C[N+](=O)[O-])NCCSCc1ccc(CN(C)C)o1 [Ranitidine],> 10 µM
5,C#CCN[C@@H]1CCc2ccccc21 [Rasagiline],> 10 µM
6,NC(CCC(=O)NC(CSCc1ccc(Br)cc1)C(=O)NCC(=O)OC1CCCC1)C(=O)OC1CCCC1 (stereo not given) [S-para-Bromobenzylglutathione cyclopentyl diester],> 10 µM
7,COc1cc(C2Oc3cc(C4Oc5cc(O)cc(O)c5C(=O)C4O)ccc3OC2CO)ccc1O (stereo not given) [Silibinin],> 10 µM
8,Fc1ccc(CNc2ncnc3ccc(F)cc23)cc1 [Spautin 1],9.64 µM
9,Cn1c2cc(S(C)=O)sc2c2cnn(Cc3cccc(N)c3)c(=O)c21 (stereo not given) [TEPP-46],> 10 µM
10,CCCCCCCCCCCCCCOc1ccc(C(=O)O)o1 [TOFA],> 10 µM
11,CN1CC(=O)N2[C@H](c3ccc4c(c3)OCO4)c3[nH]c4ccccc4c3C[C@@H]2C1=O [Tadalafil],> 10 µM

# Test system: KG-1
# Conditions: 72 h
# Summary of the method: as §1
row,SMILES,IC50 (cell viability)
1,CC(C)(F)C[C@H](N[C@@H](c1ccc(-c2ccc(S(C)(=O)=O)cc2)cc1)C(F)(F)F)C(=O)NC1(C#N)CC1 [Odanacatib],> 10 µM
2,Nc1nc(O)c2c(CCc3ccc(C(=O)N[C@@H](CCC(=O)O)C(=O)O)cc3)c[nH]c2n1 [Pemetrexed],> 10 µM
3,C=C1NC(=O)c2cc(CN(C)c3ccc(C(=O)N[C@@H](CCC(=O)O)C(=O)O)s3)ccc2N1 [Raltitrexed],> 10 µM
4,CNC(=C[N+](=O)[O-])NCCSCc1ccc(CN(C)C)o1 [Ranitidine],> 10 µM
5,C#CCN[C@@H]1CCc2ccccc21 [Rasagiline],> 10 µM
6,NC(CCC(=O)NC(CSCc1ccc(Br)cc1)C(=O)NCC(=O)OC1CCCC1)C(=O)OC1CCCC1 (stereo not given) [S-para-Bromobenzylglutathione cyclopentyl diester],> 10 µM
7,COc1cc(C2Oc3cc(C4Oc5cc(O)cc(O)c5C(=O)C4O)ccc3OC2CO)ccc1O (stereo not given) [Silibinin],> 10 µM
8,Fc1ccc(CNc2ncnc3ccc(F)cc23)cc1 [Spautin 1],1.57 µM
9,Cn1c2cc(S(C)=O)sc2c2cnn(Cc3cccc(N)c3)c(=O)c21 (stereo not given) [TEPP-46],> 10 µM
10,CCCCCCCCCCCCCCOc1ccc(C(=O)O)o1 [TOFA],> 10 µM
11,CN1CC(=O)N2[C@H](c3ccc4c(c3)OCO4)c3[nH]c4ccccc4c3C[C@@H]2C1=O [Tadalafil],> 10 µM

# Test system: KU-812
# Conditions: 72 h
# Summary of the method: as §1
row,SMILES,IC50 (cell viability)
1,CC(C)(F)C[C@H](N[C@@H](c1ccc(-c2ccc(S(C)(=O)=O)cc2)cc1)C(F)(F)F)C(=O)NC1(C#N)CC1 [Odanacatib],> 10 µM
2,Nc1nc(O)c2c(CCc3ccc(C(=O)N[C@@H](CCC(=O)O)C(=O)O)cc3)c[nH]c2n1 [Pemetrexed],0.239 µM
3,C=C1NC(=O)c2cc(CN(C)c3ccc(C(=O)N[C@@H](CCC(=O)O)C(=O)O)s3)ccc2N1 [Raltitrexed],0.056 µM
4,CNC(=C[N+](=O)[O-])NCCSCc1ccc(CN(C)C)o1 [Ranitidine],> 10 µM
5,C#CCN[C@@H]1CCc2ccccc21 [Rasagiline],> 10 µM
6,NC(CCC(=O)NC(CSCc1ccc(Br)cc1)C(=O)NCC(=O)OC1CCCC1)C(=O)OC1CCCC1 (stereo not given) [S-para-Bromobenzylglutathione cyclopentyl diester],> 10 µM
7,COc1cc(C2Oc3cc(C4Oc5cc(O)cc(O)c5C(=O)C4O)ccc3OC2CO)ccc1O (stereo not given) [Silibinin],> 10 µM
8,Fc1ccc(CNc2ncnc3ccc(F)cc23)cc1 [Spautin 1],1.39 µM
9,Cn1c2cc(S(C)=O)sc2c2cnn(Cc3cccc(N)c3)c(=O)c21 (stereo not given) [TEPP-46],> 10 µM
10,CCCCCCCCCCCCCCOc1ccc(C(=O)O)o1 [TOFA],> 10 µM
11,CN1CC(=O)N2[C@H](c3ccc4c(c3)OCO4)c3[nH]c4ccccc4c3C[C@@H]2C1=O [Tadalafil],> 10 µM

# Test system: BV-173
# Conditions: 72 h
# Summary of the method: as §1
row,SMILES,IC50 (cell viability)
1,CC(C)(F)C[C@H](N[C@@H](c1ccc(-c2ccc(S(C)(=O)=O)cc2)cc1)C(F)(F)F)C(=O)NC1(C#N)CC1 [Odanacatib],> 10 µM
2,Nc1nc(O)c2c(CCc3ccc(C(=O)N[C@@H](CCC(=O)O)C(=O)O)cc3)c[nH]c2n1 [Pemetrexed],0.381 µM
3,C=C1NC(=O)c2cc(CN(C)c3ccc(C(=O)N[C@@H](CCC(=O)O)C(=O)O)s3)ccc2N1 [Raltitrexed],0.0524 µM
4,CNC(=C[N+](=O)[O-])NCCSCc1ccc(CN(C)C)o1 [Ranitidine],> 10 µM
5,C#CCN[C@@H]1CCc2ccccc21 [Rasagiline],> 10 µM
6,NC(CCC(=O)NC(CSCc1ccc(Br)cc1)C(=O)NCC(=O)OC1CCCC1)C(=O)OC1CCCC1 (stereo not given) [S-para-Bromobenzylglutathione cyclopentyl diester],2.32 µM
7,COc1cc(C2Oc3cc(C4Oc5cc(O)cc(O)c5C(=O)C4O)ccc3OC2CO)ccc1O (stereo not given) [Silibinin],> 10 µM
8,Fc1ccc(CNc2ncnc3ccc(F)cc23)cc1 [Spautin 1],2.75 µM
9,Cn1c2cc(S(C)=O)sc2c2cnn(Cc3cccc(N)c3)c(=O)c21 (stereo not given) [TEPP-46],> 10 µM
10,CCCCCCCCCCCCCCOc1ccc(C(=O)O)o1 [TOFA],> 10 µM
11,CN1CC(=O)N2[C@H](c3ccc4c(c3)OCO4)c3[nH]c4ccccc4c3C[C@@H]2C1=O [Tadalafil],> 10 µM

# Test system: MV4-11
# Conditions: 72 h
# Summary of the method: as §1
row,SMILES,IC50 (cell viability)
1,CC(C)(F)C[C@H](N[C@@H](c1ccc(-c2ccc(S(C)(=O)=O)cc2)cc1)C(F)(F)F)C(=O)NC1(C#N)CC1 [Odanacatib],> 10 µM
2,Nc1nc(O)c2c(CCc3ccc(C(=O)N[C@@H](CCC(=O)O)C(=O)O)cc3)c[nH]c2n1 [Pemetrexed],0.425 µM
3,C=C1NC(=O)c2cc(CN(C)c3ccc(C(=O)N[C@@H](CCC(=O)O)C(=O)O)s3)ccc2N1 [Raltitrexed],0.0919 µM
4,CNC(=C[N+](=O)[O-])NCCSCc1ccc(CN(C)C)o1 [Ranitidine],> 10 µM
5,C#CCN[C@@H]1CCc2ccccc21 [Rasagiline],> 10 µM
6,NC(CCC(=O)NC(CSCc1ccc(Br)cc1)C(=O)NCC(=O)OC1CCCC1)C(=O)OC1CCCC1 (stereo not given) [S-para-Bromobenzylglutathione cyclopentyl diester],> 10 µM
7,COc1cc(C2Oc3cc(C4Oc5cc(O)cc(O)c5C(=O)C4O)ccc3OC2CO)ccc1O (stereo not given) [Silibinin],> 10 µM
8,Fc1ccc(CNc2ncnc3ccc(F)cc23)cc1 [Spautin 1],1.52 µM
9,Cn1c2cc(S(C)=O)sc2c2cnn(Cc3cccc(N)c3)c(=O)c21 (stereo not given) [TEPP-46],> 10 µM
10,CCCCCCCCCCCCCCOc1ccc(C(=O)O)o1 [TOFA],> 10 µM
11,CN1CC(=O)N2[C@H](c3ccc4c(c3)OCO4)c3[nH]c4ccccc4c3C[C@@H]2C1=O [Tadalafil],> 10 µM
